Measurements taken from patent publication US20230146455A1, “TREATMENT OF INFLAMMATORY DISEASES WITH PEPTIDES AND PHARMACEUTICAL COMPOSITIONS” (Yuyu Pharma, Inc., priority 2020, published 2023).
Values joined by “and” are separate entries in the source; they are usually repeats but may differ in a detail not shown here. Equal entries are not always repeated. Where a SMILES comes first, the peptide text is derived from it. [ ]: non-standard residue; d: D form. Hyp = O=C(O)[C@@H]1C[C@@H](O)CN1

System: Fas Ligand
Test: Example 9 Luminex, LPS hPBMCs: Fas Ligand
Format: cell-based, human
Conditions: for Fas Ligand Concentration / Fas Ligand conc/live cell / MFI, bead Fas Ligand: single replicates
Description: Treatment Human PBMCs were pretreated with YY-101, YDE-011 and YDE-043 or reference compound; Xiidra® at various concentration (ranging from 1 nM to 100 uM) for 2 h before stimulation. An equal volume of 0.5% DMSO was used as a vehicle control. Then, the cells were treated with LPS at 5 ug/ml. The supernatants from treated cells were harvested at 24 h and placed in a 96 well for Luminex cytokine & chemokine profiling using a Luminex 200 multiplex assay (Luminex; R&D system, USA).
The main study arm with triplicate wells per group in a 24-well plate: • 1. Blank • 2. PBMC: 0.5% DMSO • 3. PBMC+LPS (5 ug/ml) • 4. PBMC+YY-101 100 uM • 5. PBMC+YY-101 10 uM • 6. PBMC+YY-101 1 uM • 7. PBMC+YY-101 0.1 uM • 8. PBMC+YY-101 0.01 uM • 9. PBMC+LPS (5 ug/ml)+Xiidra®100 uM • 10. PBMC+LPS (5 ug/ml)+Xiidra® 10 uM • 11. PBMC+LPS (5 ug/ml)+Xiidra® 1 uM • 12. PBMC+LPS (5 ug/ml)+Xiidra®0.1 uM • 13. PBMC+LPS (5 ug/ml)+Xiidra®0.01 uM • 14. PBMC+LPS (5 ug/ml)+Xiidra®0.001 uM • 15. PBMC+LPS (5 ug/ml)+YY-101 100 uM • 16. PBMC+LPS (5 ug/ml)+YY-101 10 uM • 17. PBMC+LPS (5 ug/ml)+YY-101 1 uM • 18. PBMC+LPS (5 ug/ml)+YY-101 0.1 uM • 19. PBMC+LPS (5 ug/ml)+YY-101 0.01 uM • 20. PBMC+LPS (5 ug/ml)+YY-101 0.001 uM • 21. PBMC+LPS (5 ug/ml)+YDE-011 100 uM • 22. PBMC+LPS (5 ug/ml)+YDE-011 10 uM • 23. PBMC+LPS (5 ug/ml)+YDE-011 1 uM • 24. PBMC+LPS (5 ug/ml)+YDE-011 0.1 uM • 25. PBMC+LPS (5 ug/ml)+YDE-011 0.01 uM • 26. PBMC+LPS (5 ug/ml)+YDE-011 0.001 uM • 27. PBMC+LPS (5 ug/ml)+YDE-043 100 uM • 28. PBMC+LPS (5 ug/ml)+YDE-043 10 uM • 29. PBMC+LPS (5 ug/ml)+YDE-043 1 uM • 30. PBMC+LPS (5 ug/ml)+YDE-043 0.1 uM • 31. PBMC+LPS (5 ug/ml)+YDE-043 0.01 uM • 32. PBMC+LPS (5 ug/ml)+YDE-043 0.001 uM
Multiplex assay was used to measure 30 cytokines and chemokines. The 1:2, 1:10 and 1:200 diluted cell supernatant and serial dilution of the standard were dispensed into a 96 well plate at 50 ul/well. Then, the pre-mixed cocktail of antibody-coated magnetic beads was dispensed at 50 ul/well and incubated at room temperature for 2 h in a horizontal orbital microplate shaker at 800±500 rpm. The beads were washed using a magnetic device to prevent loss. The biotin-antibody was dispensed in 50 ul of each well and incubated at room temperature for 1 h in a shaker at 800±500 rpm. After washing, streptavidin-PE was added at 50 ul/well and incubated at room temperature for 30 min in a shaker under the same conditions. Finally, after washing, wash buffer (100 ul/well) was added to the plate and incubated in a shaker for 2 min. The Luminex™ 200 setting were set according to the manufacturer's protocol. The data was calculated with a standard five-parameter logistic nonlinear regression analysis of the data (xPonent software 4.2, USA). The levels of cytokine/chemokine are normalized to the live cell counts (1×10^5 cells/mL) and presented as concentrations per mL (pg/mL or ng/mL).

[1] = PBMC + LPS(5 ug/ml) + test article 0.001 uM
[2] = PBMC + LPS(5 ug/ml) + test article 0.01 uM
[3] = PBMC + LPS(5 ug/ml) + test article 0.1 uM
[4] = PBMC + LPS(5 ug/ml) + test article 1 uM
[5] = PBMC + LPS(5 ug/ml) + test article 10 uM
[6] = PBMC + LPS(5 ug/ml) + test article 100 uM
[7] = PBMC + test article 0.01 uM, no LPS
[8] = PBMC + test article 0.1 uM, no LPS
[9] = PBMC + test article 1 uM, no LPS
[10] = PBMC + test article 10 uM, no LPS
[11] = PBMC + test article 100 uM, no LPS

CC(C)C[C@H](NC(=O)CNC(=O)[C@H](CC(=O)O)NC(=O)[C@H](CCC(N)=O)NC(=O)CNC(=O)[C@@H]1C[C@@H](O)CN1)C(=O)N[C@@H](C)C(=O)NCC(=O)N1CCC[C@H]1C(=O)N[C@@H](CCCCN)C(=O)O [YY-101] (H-[Hyp]GQDGLAGPK-OH; N-terminus and C-terminus assumed)
Fas Ligand Concentration, Mean [1]: 30.9 pg/mL | Fas Ligand conc/live cell, Mean [1]: 4.9 pg/10^5 | MFI, bead Fas Ligand, Mean [1]: 43.3 | Fas Ligand Concentration [1]: 35.8 pg/mL and 32.7 pg/mL and 24.1 pg/mL | Fas Ligand conc/live cell [1]: 6.3 pg/10^5 and 4.6 pg/10^5 and 3.7 pg/10^5 | MFI, bead Fas Ligand [1]: 50.5 and 46.0 and 33.5 | Fas Ligand Concentration, Mean [2]: 33.8 pg/mL | Fas Ligand conc/live cell, Mean [2]: 5.5 pg/10^5 | MFI, bead Fas Ligand, Mean [2]: 47.5 | Fas Ligand Concentration [2]: 30.7 pg/mL and 39.3 pg/mL and 31.3 pg/mL | Fas Ligand conc/live cell [2]: 4.8 pg/10^5 and 6.6 pg/10^5 and 5.1 pg/10^5 | MFI, bead Fas Ligand [2]: 43.0 and 55.5 and 44.0 | Fas Ligand Concentration, Mean [3]: 29.5 pg/mL | Fas Ligand conc/live cell, Mean [3]: 5.1 pg/10^5 | MFI, bead Fas Ligand, Mean [3]: 41.3 | Fas Ligand Concentration [3]: 32.7 pg/mL and 30.7 pg/mL and 25.2 pg/mL | Fas Ligand conc/live cell [3]: 5.3 pg/10^5 and 5.9 pg/10^5 and 4.1 pg/10^5 | MFI, bead Fas Ligand [3]: 46.0 and 43.0 and 35.0 | Fas Ligand Concentration, Mean [4]: 34.5 pg/mL | Fas Ligand conc/live cell, Mean [4]: 5.3 pg/10^5 | MFI, bead Fas Ligand, Mean [4]: 48.5 | Fas Ligand Concentration [4]: 35.5 pg/mL and 36.2 pg/mL and 31.7 pg/mL | Fas Ligand conc/live cell [4]: 5.6 pg/10^5 and 5.1 pg/10^5 (2×) | MFI, bead Fas Ligand [4]: 50.0 and 51.0 and 44.5 | Fas Ligand Concentration, Mean [5]: 46.7 pg/mL | Fas Ligand conc/live cell, Mean [5]: 7.3 pg/10^5 | MFI, bead Fas Ligand, Mean [5]: 66.0 | Fas Ligand Concentration [5]: 58.0 pg/mL and 53.7 pg/mL and 28.6 pg/mL | Fas Ligand conc/live cell [5]: 9.7 pg/10^5 and 8.4 pg/10^5 and 3.8 pg/10^5 | MFI, bead Fas Ligand [5]: 82.0 and 76.0 and 40.0 | Fas Ligand Concentration, Mean [6]: 25.4 pg/mL | Fas Ligand conc/live cell, Mean [6]: 4.3 pg/10^5 | MFI, bead Fas Ligand, Mean [6]: 35.2 | Fas Ligand Concentration [6]: 39.0 pg/mL and 16.0 pg/mL and 21.1 pg/mL | Fas Ligand conc/live cell [6]: 6.2 pg/10^5 and 2.6 pg/10^5 and 4.2 pg/10^5 | MFI, bead Fas Ligand [6]: 55.0 and 21.5 and 29.0 | Fas Ligand Concentration, Mean [7]: 7.7 pg/mL | Fas Ligand conc/live cell, Mean [7]: 1.5 pg/10^5 | MFI, bead Fas Ligand, Mean [7]: 8.8 | Fas Ligand Concentration [7]: 6.5 pg/mL and 8.8 pg/mL | Fas Ligand conc/live cell [7]: 1.3 pg/10^5 and 1.8 pg/10^5 | MFI, bead Fas Ligand [7]: 7.0 and 10.5 | Fas Ligand Concentration, Mean [8]: 7.2 pg/mL | Fas Ligand conc/live cell, Mean [8]: 1.4 pg/10^5 | MFI, bead Fas Ligand, Mean [8]: 8.0 | Fas Ligand Concentration [8]: 6.5 pg/mL and 7.8 pg/mL | Fas Ligand conc/live cell [8]: 1.5 pg/10^5 and 1.3 pg/10^5 | MFI, bead Fas Ligand [8]: 7.0 and 9.0 | Fas Ligand Concentration, Mean [9]: 7.5 pg/mL | Fas Ligand conc/live cell, Mean [9]: 1.4 pg/10^5 | MFI, bead Fas Ligand, Mean [9]: 8.5 | Fas Ligand Concentration [9]: 6.5 pg/mL and 8.5 pg/mL | Fas Ligand conc/live cell [9]: 1.2 pg/10^5 and 1.5 pg/10^5 | MFI, bead Fas Ligand [9]: 7.0 and 10.0 | Fas Ligand Concentration, Mean [10]: 13.2 pg/mL | Fas Ligand conc/live cell, Mean [10]: 2.1 pg/10^5 | MFI, bead Fas Ligand, Mean [10]: 17.3 | Fas Ligand Concentration [10]: 14.0 pg/mL and 12.4 pg/mL | Fas Ligand conc/live cell [10]: 2.2 pg/10^5 and 2.0 pg/10^5 | MFI, bead Fas Ligand [10]: 18.5 and 16.0 | Fas Ligand Concentration, Mean [11]: 6.9 pg/mL | Fas Ligand conc/live cell, Mean [11]: 1.0 pg/10^5 | MFI, bead Fas Ligand, Mean [11]: 7.5 | Fas Ligand Concentration [11]: 7.8 pg/mL and 5.9 pg/mL | Fas Ligand conc/live cell [11]: 1.2 pg/10^5 and 0.8 pg/10^5 | MFI, bead Fas Ligand [11]: 9.0 and 6.0
